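Five concentrations, 48 hours, 96-well plates. TGI denotes the concentration required for complete inhibition of growth.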 Where a SMILES comes first, the peptide text is derived from it. The star is where a group is joined. Boc = CC(C)(C)OC(=O)*; OtBu = CC(C)(C)O*
Key:
Experiment in all cases: NCI-60 cell line screen, 48 h
[1] = test system: NCI-H522 lung
[2] = test system: M14 melanoma
[3] = test system: RXF 393 renal
[4] = test system: UO-31 renal
[5] = test system: SW-620 colon
[6] = test system: NCI-H23 lung

Row | Compound | TGI [1] | TGI [2] | TGI [3] | TGI [4] | TGI [5] | TGI [6]
1 | O=C(NNC(=O)c1cc2ccccc2[nH]1)c1cc2ccccc2[nH]1 | > 100 µM | > 100 µM | > 100 µM | > 100 µM | > 100 µM | –
2 | CC(=O)OCC1OC(NC(=S)Nn2c(-c3ccccc3)nc3ccccc3c2=O)C(OC(C)=O)C(OC(C)=O)C1OC(C)=O (stereo not given) | > 100 µM | > 100 µM | > 100 µM | > 100 µM | > 100 µM | > 100 µM
3 | CC(=O)OCC1OC(Sc2nc(-c3ccccc3)c(C#N)c(=O)n2C2OC(COC(C)=O)C(OC(C)=O)C(OC(C)=O)C2OC(C)=O)C(OC(C)=O)C(OC(C)=O)C1OC(C)=O (stereo not given) | > 100 µM | > 100 µM | > 100 µM | > 100 µM | > 100 µM | > 100 µM
4 | O=C(O)c1ccc2nc(-c3ccccn3)c(-c3ccccn3)nc2c1 | – | > 100 µM | > 100 µM | > 100 µM | > 100 µM | > 100 µM
5 | CN1CN(c2ccccc2)C2(CCN(CCCN(C)c3ccc(F)cc3)CC2)C1=O | 27.4 µM | 30.7 µM | 46.2 µM | 40.3 µM | 36.2 µM | 44.1 µM
6 | O=[N+]([O-])C1=Cc2c(O)ccc(O)c2C2c3ccccc3NC12 (stereo not given) | 5.48 µM | 28.2 µM | 26.4 µM | 11.8 µM | > 47.1 µM | 15.8 µM
7 | COC(=O)c1nc2n(n1)-c1ccccc1C(=O)N(Cc1ccccc1)C2 | > 100 µM | > 100 µM | > 100 µM | > 100 µM | > 100 µM | > 100 µM
8 | CC(C)c1cc(C(C)C)c(S(=O)(=O)N/N=C2\CC3CCC2(C)C3(C)C)c(C(C)C)c1 (stereo not given) | 36.8 µM | > 100 µM | 58.5 µM | > 100 µM | > 100 µM | > 100 µM
9 | CCOC(=O)c1c2ccccc2n2c(=O)n(-c3ccccc3)nnc12 | – | > 100 µM | > 100 µM | > 100 µM | > 100 µM | > 100 µM
10 | O=[N+]([O-])c1ccc(-c2ccc([C@H]3CC(c4cc(F)c(Cl)cc4Cl)=NN3)o2)cc1 | > 100 µM | > 100 µM | > 100 µM | > 100 µM | > 100 µM | 32.9 µM
11 | CC(C)(C)OC(=O)CC(NC(=O)OC(C)(C)C)C(=O)NC(Cc1ccccc1)C(N)=O (stereo not given) (Boc-Asp(OtBu)-Phe-NH2; configuration not given here) | > 100 µM | > 100 µM | > 100 µM | > 100 µM | > 100 µM | > 100 µM
12 | CN(C)CCCCN1c2ccccc2Sc2ccc(N=[N+]=[N-])cc21 | 14.1 µM | 3.06 µM | 16.1 µM | 19 µM | 16.8 µM | 27.7 µM
13 | Cc1ccc(Nc2nc3ccccc3nc2NS(=O)(=O)c2ccc(N)cc2)cc1 | > 100 µM | > 100 µM | > 100 µM | 65.5 µM | > 100 µM | 16.2 µM
14 | COc1nc2c(c(=O)[nH]1)N=C(c1ccc([N+](=O)[O-])cc1)CC(c1ccccc1)N2 (stereo not given) | > 100 µM | > 100 µM | > 100 µM | > 100 µM | > 100 µM | > 100 µM
15 | O=[N+]([O-])c1cccc(-c2ccc([C@H]3CC(c4ccc(Cl)cc4)=NN3)o2)c1 | 59.1 µM | > 100 µM | 35.2 µM | 40.9 µM | > 100 µM | –
16 | COc1cc(Nc2nc(NS(=O)(=O)c3cc(C)c(Cl)cc3S)n[nH]2)cc(OC)c1OC | > 100 µM | > 100 µM | > 100 µM | > 100 µM | > 100 µM | > 100 µM
17 | O=c1[nH]c2ccccc2c(=O)c2cc3ccccc3cc12 | 25.8 µM | > 100 µM | 56.3 µM | > 100 µM | > 100 µM | 47.8 µM
18 | COc1ccc(CC(COS(=O)(=O)c2ccc(C)cc2)NS(=O)(=O)c2ccc(C)cc2)cc1 (stereo not given) | 22.9 µM | 29.6 µM | 17.1 µM | 40.2 µM | 27 µM | 40.8 µM
19 | C/C(=N\NC(N)=O)C(CN1CCOCC1)C(c1ccccc1)c1c(O)c2ccccc2oc1=O (stereo not given) | > 100 µM | > 100 µM | – | > 100 µM | > 100 µM | > 100 µM
20 | Cc1cccc2c(=O)c3cccc(CC(=O)O)c3oc12 | > 100 µM | > 100 µM | – | > 100 µM | > 100 µM | > 100 µM
21 | CCOC(=O)c1sc(N)nc1N1CCCC1 | > 100 µM | > 100 µM | > 100 µM | > 100 µM | > 100 µM | > 100 µM
22 | C[N+](C)(C)CC(=O)N/N=C\c1c(O)ccc2ccccc12 | 53.6 µM | > 100 µM | 82.5 µM | > 100 µM | > 100 µM | > 100 µM
23 | O=c1oc2cc(O)ccc2c(O)c1C(c1ccc(/C=C/c2ccccc2)cc1)c1c(O)c2ccc(O)cc2oc1=O | > 100 µM | > 100 µM | > 100 µM | > 100 µM | > 100 µM | > 100 µM
24 | COC(=O)c1c(C(=O)OC)c2ccccn2c1-c1cc(C)cc2c1C(=O)C=CC2=O | – | 14.5 µM | 18.5 µM | 6.05 µM | 8.21 µM | 14.8 µM
25 | COc1cccc(O)c1-c1cc(=O)c2c(O)c(OC)c(OC)c(OC)c2o1 | 87.9 µM | 68.4 µM | 42.9 µM | > 100 µM | > 100 µM | 85.5 µM
26 | CCOc1cc(NC(C)=O)ccc1C(=O)NN1C(=O)/C(=C/c2ccc(Cl)cc2)N=C1c1ccccc1 | – | > 100 µM | > 100 µM | > 100 µM | > 100 µM | > 100 µM
27 | COc1ccc(CCN2C(=O)C(=O)C(C(=O)c3ccccc3)C2c2ccccc2)cc1OC (stereo not given) | > 100 µM | > 100 µM | > 100 µM | > 100 µM | > 100 µM | > 100 µM
28 | C=C1C(=O)O[C@H]2[C@@H]3O[C@@](C)(CC/C=C(\C)CCC[C@@H]2C)[C@H](O)C[C@@H]13 | 5.67 µM | 5.86 µM | 84.3 µM | 11.9 µM | > 100 µM | 2.96 µM
29 | CCOC(=O)c1nc2ccccc2nc1Oc1ccc(F)cc1 | – | > 100 µM | > 100 µM | > 100 µM | > 100 µM | –
30 | COc1ccc(Cc2nc3cc(C(F)(F)F)ccc3n2C[C@@H]2CCCN3CCCCC23)cc1 (stereo not given in full) | 21.8 µM | 7.14 µM | 22.3 µM | 0.166 µM | > 62.1 µM | 30.9 µM

— PubChem BioAssay (NCI)
